Experimental data from patent US20120201908A1, “METHOD OF TREATING BIPOLAR DISORDER OR DEPRESSION USING AN ANTIESTROGEN” (Lunera Equities, LLLP, priority 2009, published 2012).
“Also recorded” adds a separate entry of the source. Where a name gives a salt, the structure may show the parent alone. Read-outs that look alike come from different tables or passages of the source.

Assays:
[1] = test system: symptoms of bipolar disorder (bipolar I); assay: Pilot study Subject D: tamoxifen citrate added to bipolar medication, mood charts and psychiatrist visits; format: in vivo, human
From the text: Subject D is a person with a family history of bipolar disorder. Although Subject D had symptoms spanning Asperger's Syndrome, Bipolar I, Obsessive-Compulsive Disorder, Oppositional Defiant Disorder and anti-social traits, bipolar I was the diagnosis for several reasons, including the fact that it was present on both sides of the family and the symptoms were better suited to a bipolar diagnosis.
First visit: Day 1. Due to Subject D's extreme condition, past hospitalizations and the complicated mixture of medications, the psychiatrist spent approximately one hour with the subject. […] Subject D was also given a copy of the Gary Sach's Mood Chart for the subject and their parent to be filled out daily for the psychiatrist's weekly review.

[2] = test system: symptoms of bipolar disorder (bipolar disorder I); assay: Case report Subject A: antiestrogen to treat symptoms of bipolar disorder; settings: for mood swings with the antiestrogen as only bipolar medication: tamoxifen citrate 20 mg base equivalents or Arimidex 1 mg, once every day or every other day; for effect of earlier medication on bipolar mood swings / side effects / reason for discontinuation of earlier medication: medication history before the antiestrogen
Procedure: (§1) The following list describes the drugs that were tried in combination with Eskalith: • 1. Depakote® (Divalproex Sodium Delayed Release Tablets) 50 mg daily. […] Tegretol XR® (Carbamazepine) 200 mg twice daily. […] Risperdal® (Risperidone) 3 mg per day. […] Prozac® (Olanzapine and Fluoxetine hydrochloride) 20 mg twice daily. […] Klonopin® (Clonazepam): originally from 2002 to 2009 was 8 mg to 10 mg daily for generalized anxiety. […] Lamictal® (Lamotrigine) Titration schedule over five weeks up to 250 mg twice daily.

[3] = test system: symptoms of bipolar disorder (bipolar disorder II); assay: Case report Subject B: antiestrogen to treat symptoms of bipolar disorder; format: in vivo, human
Procedure: Subject B is a person in good general physical health with a family history of bipolar disorder. Subject B underwent Cholecystectomy. Subject B was diagnosed with Meniere's Syndrome. Subject B was diagnosed with bipolar disorder II, at which time Lamictal was prescribed by a psychiatrist. […] The psychiatrist then prescribed Effexor XR® (venlafaxine hydrochloride) 75 mg/daily. […] A general physician prescribed 1.5 mg/Klonopin® (Clonazepam) daily.
Subject B also remained mentally alert and stable. […] Currently, Subject B remains stable and emotionally level.
Subject B's spouse states that Subject B is much more level, enjoys their life to a new degree, no longer loses control or becomes violent without warning. The entire family feels that life is much easier since Subject B began taking the antiestrogen.

[4] = test system: symptoms of acute/severe depression; assay: Case report Subject C: antiestrogen in descending daily dosing to treat acute/severe depression; format: in vivo, human; settings: for time to lessening of symptoms of depression after the first dose: single dose on day one: tamoxifen citrate 20 mg or Arimidex 1 mg; for symptoms of depression after the descending dose course: tamoxifen citrate 20/10/5/2.5/2.5 mg days 1-5, Arimidex 1/0.5/0.25/0.25 mg days 1-4
From the text: Subject C is a person in good general physical health with no previous history of mental illness or depression. Subject C was prescribed Dapsone as a child in order to treat to treat dermititis herpetiformis. Subject C received no medication in the past four years. In December 2008, Subject C became lethargic, uninterested in usually pleasurable activities, restless, and began oversleeping. After a full month, symptoms of depression became extreme and subject C was thought to be in danger of becoming suicidal.
Subject C's last dose was 2.5 mg on the fifth day.
Suicidal thoughts returned and Subject C considered dropping out of law school. Subject C started a descending dose course of Arimidex®; starting with a single dose of 1 mg on day one. Again, symptoms of depression faded noticeably within 8 hours, in a manner similar to that in response to treatment with tamoxifen. Subject C took single daily doses of Arimidex®; 0.5 mg on day two; 0.25 mg each on days three and four.

[5] = test system: symptoms of bipolar disorder; assay: Pilot study Subject E: tamoxifen citrate added to bipolar medication, mood charts and psychiatrist visits; format: in vivo, human
From the text: Subject E is a person and an insulin dependent diabetic. Subject E was diagnosed with bipolar disorder at […]. They have had surgery in the past for their knees, their neck and stitches for their head. Subject E has been institutionalized multiple times within the last nine years for their own protection. To date, no medications have seemed to help. Subject also has a history of alcoholism. Some complexity was expected in treatment due to diabetes.

[6] = test system: symptoms of bipolar disorder (bipolar disorder I); settings: human, in vivo
Procedure: as §1

[7] = in vivo; cited from earlier work
[8] = test system: protein kinase C alpha and epsilon isozymes; settings: rat frontal cortex and hippocampus; Manji et al. 1999; cited from earlier work
[9] = test system: symptoms of bipolar disorder; settings: Subject F; for onset of noticed difference: tamoxifen citrate 20 mg qd
From the text: In a preferred aspect, the patient fills out the mood chart on a regular basis and a family member, friend, roommate or clinical or institutional staff member who interacts with the patient on a regular basis, also records a parallel mood chart on a regular basis. […] In another aspect, a mood chart is started at the start of treatment with an antiestrogen.
Subject F is a person who experienced a coronary three years prior to starting the study that their doctors blamed on stimulants used for ADD. Subject F had stents placed following the coronary. […] They maintain a job where they can do much of the work from home. It has been over a year since they were so severe they could not get out of bed or work. They have not had any extreme episodes in the immediate past. Subject F is nearsighted and has high blood pressure.

[10] = test system: mania in patients with bipolar disorder; settings: Yildiz et al. 2008; cited from earlier work

CC1=C(/C=C/C(C)=C/C=C/C(C)=C\C(=O)O)C(C)(C)CCC1 [Accutane]
depression under Accutane ([1]; Day 95, Accutane 30 mg qd with tamoxifen citrate 30 mg qd): still shows no signs of depression

CC(C)(C#N)c1cc(Cn2cncn2)cc(C(C)(C)C#N)c1 [Arimidex, anastrozole]
severity of bipolar episodes and symptoms ([2]; Arimidex 1 mg once a day, within a week of starting): episodes and symptoms became less severe | mood swings with the antiestrogen as only bipolar medication [2]: controls mood swings without the concurrent use of other bipolar medication; also recorded: mood swings became virtually non-existent | frequency of bipolar cycles ([2]; while taking Arimidex 1 mg once a day): cycles were less frequent | response when Arimidex replaces tamoxifen citrate ([3]; Arimidex 0.25-1 mg used interchangeably with tamoxifen citrate 10 mg every other day): without change in response; also recorded: work equally as well | symptom-free period after the course [4]: After five months, Subject C remains free of symptoms of depression | time to lessening of symptoms of depression after the first dose [4]: ≤ 8 h | symptoms of depression after the descending dose course [4]: Symptoms of depression were substantially alleviated after day four

O=C1CCc2ccc(OCCCCN3CCN(c4cccc(Cl)c4Cl)CC3)cc2N1 [Abilify, Aripiprazole]
mood after self-discontinuing Abilify ([5]; Day 27, Abilify 5 mg qd not taken for 7 days): experienced some depression and mild anxiety and irritability | mood after resuming Abilify ([5]; Day 34, Abilify 5 mg qd): much better week

CC(NC(C)(C)C)C(=O)c1cccc(Cl)c1 (stereo not shown) [Wellbutrin, bupropion hydrochloride]
side effects / reason for discontinuation of earlier medication [6]: dulled their mind and slowed their thinking

Nc1nnc(-c2cccc(Cl)c2Cl)c(N)n1 [Lamictal, Lamotrigine]
effect of earlier medication on bipolar mood swings [2]: Mood swings were more frequent without Lamictal | patients who develop a rash [7]: 5-10% | side effects / reason for discontinuation of earlier medication [6]: worsening skin condition; aggravated linear IgA dermatosis

Cc1ccc(-c2nc3ccc(C)cn3c2CC(=O)N(C)C)cc1 [Ambien]
sleep ([1]; Day 95, Ambien sample for trial): helped their sleeping

NC(=O)N1c2ccccc2C=Cc2ccccc21 [Tegretol XR, Carbamazepine]
effect of earlier medication on bipolar mood swings [2]: Worked for a few weeks | side effects / reason for discontinuation of earlier medication [6]: hand and body tremors, as well as slurring of speech and numb feeling tongue

CCCC(CCC)C(=O)O [Depakote, Divalproex Sodium]
protein kinase C alpha and epsilon isozymes [8]: reduction in protein kinase C alpha and epsilon isozymes | side effects / reason for discontinuation of earlier medication [6]: heavy side effects

CN(C)CCCN1c2ccccc2CCc2ccccc21 [Imipramine hydrochloride]
effect of earlier medication on bipolar mood swings [2]: continued to have bipolar swings | side effects / reason for discontinuation of earlier medication [6]: extreme hand tremors

COc1ccc(C(CN(C)C)C2(O)CCCCC2)cc1 (stereo not shown) [Effexor XR, venlafaxine hydrochloride]
side effects / reason for discontinuation of earlier medication ([3]; Lamictal 10-12 weeks, Effexor XR 75 mg/daily for three days): lack of sleep, extreme mania, high anxiety and hyperactivity

O=C([O-])[O-].[Li+].[Li+] [Eskalith, Lithium Carbonate]
effect of earlier medication on bipolar mood swings [2]: slowed the swings, but did not change the severity of either the depressive or manic episodes | side effects / reason for discontinuation of earlier medication [2]: damage to the thyroid | protein kinase C alpha and epsilon isozymes [8]: reduction in protein kinase C alpha and epsilon isozymes

C[C@]12C=CC(=O)C=C1CC[C@@H]1[C@@H]2C(=O)C[C@@]2(C)[C@H]1CC[C@]2(O)C(=O)CO [Prednisone]
side effects / reason for discontinuation of earlier medication [6]: made all physical and mental conditions worse

OCCOCCN1CCN(C2=Nc3ccccc3Sc3ccccc32)CC1 [Seroquel, quetiapine fumarate]
side effects / reason for discontinuation of earlier medication [6]: extreme tiredness and inability to function

CCCCCCCCCC(=O)O[C@H]1CC[C@H]2[C@@H]3CCC4=CC(=O)CC[C@@H]4[C@H]3CC[C@]12C [Nandrolone deconate]
side effects / reason for discontinuation of earlier medication [2]: Erythrocytosis

CC/C(=C(\c1ccccc1)c1ccc(OCCN(C)C)cc1)c1ccccc1.O=C(O)CC(O)(CC(=O)O)C(=O)O [Tamoxifen citrate, (Z)2-[4-(1,2-diphenyl-1-butenyl)phenoxy]-N,N-dimethylethanamine 2-hydroxy-1,2,3-propanetricarboxylate (1:1)]
anger ([9]; Day 13, tamoxifen citrate 20 mg qd, Strattera not taken): felt less angry even without taking the Strattera | subject's report to study coordinator ([9]; Day 52, Lamictal lowered to 100 mg qd): noticing the ability to sense their moods better | mood after a forgotten dose ([9]; Day 70, dose forgotten the day before): felt more depressed than any day since they started the program | out of control spending ([9]; Day 77): they have not had this problem since they went on the Tamoxifen | outbursts ([9]; Day 84): one outburst with their spouse, the first since starting Tamoxifen | onset of noticed difference ([9]; listed as Tamoxifen): positive difference around four days after starting | onset of noticed difference ([9]; listed as tamoxifen citrate): noticed a difference within three or four days | moods, spending, anger (synopsis) ([9]; to Day 98, since starting Tamoxifen Citrate): their moods have been level, their normally “out of control spending” was no longer a problem and their anger and problems with spouse have all but vanished | reduction of concurrent bipolar medication ([9]; to Day 98, tamoxifen 20 mg daily): Lamictal was able to be discontinued, and Strattera was able to remain discontinued with mood stabilization | mood swings with the antiestrogen as only bipolar medication [2]: controls mood swings without the concurrent use of other bipolar medication | mood swings with the antiestrogen as only bipolar medication ([2]; listed as tamoxifen citrate): mood swings became virtually non-existent | mood and energy as told to the psychiatrist ([1]; Day 9, tamoxifen citrate 20 mg qd): happier than they have been in a long time and has more energy | onset of feeling more balanced ([1]; tamoxifen citrate 20 mg qd added to Lithium ER, Depakote ER, Risperidone, Geodon): began feeling more balanced after only four days | reduction of concurrent bipolar medication ([1]; to Day 153, tamoxifen 20-30 mg daily): the doses of Depakote ER, Risperidone and Geodon were each able to be significantly reduced and Lithium was able to be discontinued | time remained stable since beginning treatment [3]: approximately 18 months | bipolar symptoms ([3]; tamoxifen citrate 10 mg or 20 mg base equivalents taken regularly as only mood-stabilizing medication): no longer has bipolar symptoms | mood stability ([3]; tamoxifen citrate 20 mg base equivalents daily for two weeks): increased mood stability and overall feeling of well being | treatment of mania [10]: effective in treatment of mania in patients with bipolar disorder | response to treatment ([5]; Day 34, tamoxifen citrate 20 mg qd, other drugs cut in dose, listed as tamoxifen): responded well | reduction of concurrent bipolar medication ([5]; to Day 148, tamoxifen 20 mg daily): Topamax and Fluoxetine were able to be discontinued, and the dose of Abilify was significantly reduced | symptom-free period after the course [4]: three months with no symptoms of depression | time to lessening of symptoms of depression after the first dose [4]: within the first eight hours | symptoms of depression after the descending dose course [4]: Symptoms of depression were alleviated

Cc1nc2n(c(=O)c1CCN1CCC(c3noc4cc(F)ccc34)CC1)CCCC2 [Risperdal, Risperidone]
side effects / reason for discontinuation of earlier medication [6]: inability to work or function to a satisfactory level
